In paper PMC4510350 (PLoS Neglected Tropical Diseases, 2015):
Converted amounts (≈) assume the structure as drawn. “Also recorded” adds a separate entry of the source. Where a SMILES comes first, the peptide text is derived from it. Where no end group is shown, it is not given here. [ ]: non-standard residue; d: D form.

Assays:
B. thailandensis biofilm = format: cell-based, Burkholderia thailandensis
B. thailandensis (E264) = conditions: pH 7.4
[1] = system: B. thailandensis E264 pre-formed biofilm; format: cell-based, Burkholderia thailandensis; conditions: n = 8
B. pseudomallei = conditions: cited from earlier work
[2] = system: multiple Burkholderia species; conditions: cited from earlier work

CC(C)(O/N=C(\C(=O)N[C@@H]1C(=O)N2C(C(=O)[O-])=C(C[n+]3ccccc3)CS[C@H]12)c1csc(N)n1)C(=O)O [Ceftazidime]
biofilm inhibition (B. thailandensis biofilm): did not inhibit biofilm production; also recorded: did not show biofilm inhibition

CC(C)C[C@@H](NC(=O)[C@@H](CCCCN)NC(=O)[C@@H](CCCCN)NC(=O)[C@@H](Cc1ccccc1)NC(=O)[C@@H](Cc1ccccc1)NC(=O)[C@@H](CCCCN)NC(=O)[C@@H](CCCCN)NC(=O)[C@@H](C)NC(=O)[C@@H](CCCNC(=N)N)NC(=O)[C@H](N)CCCCN)C(=O)N[C@H](CCCCN)C(N)=O [D-ATRA-1A] (H-[dK][dR][dA][dK][dK][dF][dF][dK][dK][dL][dK]-NH2; N-terminus and C-terminus assumed)
EC50 (B. thailandensis (E264); 3 h): 4.82 µM | EC50 (μg/ml) (B. thailandensis (E264); 3 h): 6.86 µg/mL (≈ 4.83 µM) | biofilm inhibition (B. thailandensis biofilm): did slightly, but only at the highest concentration of peptide tested (300 μg/ml); also recorded: Minimal biofilm inhibition | dispersion of pre-formed biofilm [1]: no biofilm dispersion activity

GLKLRFEFSKIKGEFLKTPEVRFRDIKLKDNRISVQR [Scrambled LL-37]
biofilm inhibition (B. thailandensis biofilm): did not inhibit biofilm; also recorded: did not show biofilm inhibition

HNP-3
antimicrobial activity / whether an EC50 could be determined (B. thailandensis (E264)): could not be calculated because the peptide was ineffective

HNP-4 (VCSCRLVFCRRTELRVGNCLIGGVSFTYCCTRV; ends and bridges not checked; cysteine pairing not given here; UniProt P12838 64-96, looked up)
antimicrobial activity / whether an EC50 could be determined (B. thailandensis (E264)): could not be calculated because the peptide was ineffective

KRAKKFFKKLK-NH2 [ATRA-1A]
EC50 (B. thailandensis (E264); 3 h): 9.83 µM

KRAKKFFKKPK [ATRA-2]
biofilm inhibition (B. thailandensis biofilm): did not inhibit biofilm formation; also recorded: not biofilm inhibition | dispersion of pre-formed biofilm [1]: no biofilm dispersion activity

KRFKKFFKKLK [ATRA-1]
EC50 (B. thailandensis (E264); 3 h): 6.94 µM

RGRKSSRRKK [Peptide 4 of hBD-3]
antimicrobial activity / whether an EC50 could be determined (B. thailandensis (E264)): could not be calculated because the peptide was ineffective | killing of B. thailandensis at highest concentration tested (B. thailandensis (E264)): 65%

bactenecin
antimicrobial activity against B. pseudomallei (B. pseudomallei): antimicrobial against B. pseudomallei

hBD-3 (GIINTLQKYYCRVRGGRCAVLSCLPKEEQIGKCSTRGRKCCRRKK; ends and bridges not checked; cysteine pairing not given here; UniProt P81534 23-67, looked up)
LD50 against multiple Burkholderia species [2]: > 100 µg/mL
